Source: ChEMBL document CHEMBL1133189, “Novel conformationally constrained tropane analogues by 6-endo-trig radical cyclization and stille coupling - switch of activity toward the serotonin and/or norepinephrine transporter” (J Med Chem, 2000)

Assays:
[1] = target: Norepinephrine transporter (Rattus norvegicus, UniProt Q9WTR4); assay: Inhibition of reuptake of [3H]-NE at Norepinephrine transporter
[2] = target: Sodium-dependent dopamine transporter (Rattus norvegicus, UniProt P23977); assay: Inhibition of reuptake of [3H]DA at Dopamine transporter (DAT)
Chain of Sodium-dependent dopamine transporter (Rattus norvegicus, UniProt P23977) (P23977 whole entry): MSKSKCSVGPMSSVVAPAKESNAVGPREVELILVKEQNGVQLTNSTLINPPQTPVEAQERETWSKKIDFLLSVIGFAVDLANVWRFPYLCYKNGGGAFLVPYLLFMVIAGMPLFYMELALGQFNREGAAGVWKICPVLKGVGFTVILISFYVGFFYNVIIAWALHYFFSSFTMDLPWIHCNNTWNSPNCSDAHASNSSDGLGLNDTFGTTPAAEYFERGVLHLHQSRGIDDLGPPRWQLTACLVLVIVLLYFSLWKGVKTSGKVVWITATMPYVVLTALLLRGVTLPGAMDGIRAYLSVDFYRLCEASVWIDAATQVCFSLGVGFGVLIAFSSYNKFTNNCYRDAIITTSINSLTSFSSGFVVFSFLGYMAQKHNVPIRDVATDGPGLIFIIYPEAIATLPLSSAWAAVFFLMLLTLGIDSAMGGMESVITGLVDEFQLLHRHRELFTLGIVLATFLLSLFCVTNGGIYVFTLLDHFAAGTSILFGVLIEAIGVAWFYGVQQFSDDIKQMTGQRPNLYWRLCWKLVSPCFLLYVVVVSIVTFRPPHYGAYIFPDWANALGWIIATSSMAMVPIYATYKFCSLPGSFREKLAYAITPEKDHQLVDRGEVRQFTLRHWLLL

[3] = target: Sodium-dependent serotonin transporter (Rattus norvegicus, UniProt P31652); assay: Inhibition of reuptake of [3H]5-HT at serotonin transporter
Chain of Sodium-dependent serotonin transporter (Rattus norvegicus, UniProt P31652) (P31652 whole entry): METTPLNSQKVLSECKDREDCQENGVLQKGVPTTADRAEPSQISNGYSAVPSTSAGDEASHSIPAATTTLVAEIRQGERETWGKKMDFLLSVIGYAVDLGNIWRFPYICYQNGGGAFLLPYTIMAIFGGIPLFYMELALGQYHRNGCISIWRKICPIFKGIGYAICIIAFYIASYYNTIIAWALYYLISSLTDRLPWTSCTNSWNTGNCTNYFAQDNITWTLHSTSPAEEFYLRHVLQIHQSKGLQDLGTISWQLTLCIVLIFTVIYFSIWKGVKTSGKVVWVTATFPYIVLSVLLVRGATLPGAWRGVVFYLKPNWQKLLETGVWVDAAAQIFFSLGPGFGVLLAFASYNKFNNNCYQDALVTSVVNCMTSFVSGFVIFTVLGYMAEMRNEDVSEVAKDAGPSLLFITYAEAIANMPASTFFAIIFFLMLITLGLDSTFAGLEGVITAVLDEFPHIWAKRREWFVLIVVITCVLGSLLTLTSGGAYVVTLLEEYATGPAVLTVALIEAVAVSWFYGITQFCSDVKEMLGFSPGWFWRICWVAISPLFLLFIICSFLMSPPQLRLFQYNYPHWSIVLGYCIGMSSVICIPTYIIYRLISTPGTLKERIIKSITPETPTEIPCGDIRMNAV

[4] = target: T1, Sodium-dependent noradrenaline transporter (Homo sapiens, UniProt P23975); assay: Compound was evaluated for binding affinity using [125I]RTI-55 as a radioligand in HEK-hNET cells expressing human norepinephrine transporter; type: cell-based
T1 sequence (P23975 whole entry): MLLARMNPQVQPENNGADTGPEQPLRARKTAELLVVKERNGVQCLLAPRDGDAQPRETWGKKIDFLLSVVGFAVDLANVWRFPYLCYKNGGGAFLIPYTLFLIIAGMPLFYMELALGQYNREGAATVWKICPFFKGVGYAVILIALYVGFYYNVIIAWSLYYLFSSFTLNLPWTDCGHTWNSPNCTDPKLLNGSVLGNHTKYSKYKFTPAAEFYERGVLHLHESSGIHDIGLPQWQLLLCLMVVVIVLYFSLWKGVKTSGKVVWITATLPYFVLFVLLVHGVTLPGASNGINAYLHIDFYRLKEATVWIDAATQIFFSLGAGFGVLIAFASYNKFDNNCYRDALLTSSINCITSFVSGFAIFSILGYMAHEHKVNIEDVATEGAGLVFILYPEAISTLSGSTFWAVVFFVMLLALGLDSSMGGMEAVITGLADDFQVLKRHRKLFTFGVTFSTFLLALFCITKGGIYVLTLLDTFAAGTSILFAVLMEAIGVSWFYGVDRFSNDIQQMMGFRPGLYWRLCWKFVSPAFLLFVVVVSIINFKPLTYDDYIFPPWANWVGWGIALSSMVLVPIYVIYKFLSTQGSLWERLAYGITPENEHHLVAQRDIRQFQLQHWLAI

[5] = target: T2, Sodium-dependent serotonin transporter (Homo sapiens, UniProt P31645); assay: Compound was evaluated for inhibition of [3H]5-HT uptake in HEK-hSERT cells expressing Human serotonin transporter; type: cell-based
T2 sequence (P31645 whole entry): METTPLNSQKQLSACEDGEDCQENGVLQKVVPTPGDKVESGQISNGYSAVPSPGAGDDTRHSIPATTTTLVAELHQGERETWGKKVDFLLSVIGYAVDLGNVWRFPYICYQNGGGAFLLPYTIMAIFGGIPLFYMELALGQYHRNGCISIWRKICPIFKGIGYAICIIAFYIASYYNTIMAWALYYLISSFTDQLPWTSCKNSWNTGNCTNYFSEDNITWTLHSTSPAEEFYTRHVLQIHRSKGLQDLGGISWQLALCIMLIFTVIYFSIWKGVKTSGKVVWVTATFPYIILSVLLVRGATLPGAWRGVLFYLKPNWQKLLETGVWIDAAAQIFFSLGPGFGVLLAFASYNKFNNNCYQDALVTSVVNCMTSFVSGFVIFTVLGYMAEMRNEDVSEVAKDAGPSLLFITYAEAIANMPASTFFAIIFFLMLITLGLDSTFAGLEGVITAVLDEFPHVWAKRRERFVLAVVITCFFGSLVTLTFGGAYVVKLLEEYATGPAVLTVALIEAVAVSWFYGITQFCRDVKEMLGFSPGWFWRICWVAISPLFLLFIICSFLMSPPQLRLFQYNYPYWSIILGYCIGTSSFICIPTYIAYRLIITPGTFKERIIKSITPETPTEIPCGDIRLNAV

[6] = target: T3, Sodium-dependent dopamine transporter (Homo sapiens, UniProt Q01959); assay: Compound was evaluated for inhibition of [3H]DA uptake in HEK-hDAT cells expressing Human dopamine Transporter; type: cell-based
T3 sequence (Q01959 whole entry): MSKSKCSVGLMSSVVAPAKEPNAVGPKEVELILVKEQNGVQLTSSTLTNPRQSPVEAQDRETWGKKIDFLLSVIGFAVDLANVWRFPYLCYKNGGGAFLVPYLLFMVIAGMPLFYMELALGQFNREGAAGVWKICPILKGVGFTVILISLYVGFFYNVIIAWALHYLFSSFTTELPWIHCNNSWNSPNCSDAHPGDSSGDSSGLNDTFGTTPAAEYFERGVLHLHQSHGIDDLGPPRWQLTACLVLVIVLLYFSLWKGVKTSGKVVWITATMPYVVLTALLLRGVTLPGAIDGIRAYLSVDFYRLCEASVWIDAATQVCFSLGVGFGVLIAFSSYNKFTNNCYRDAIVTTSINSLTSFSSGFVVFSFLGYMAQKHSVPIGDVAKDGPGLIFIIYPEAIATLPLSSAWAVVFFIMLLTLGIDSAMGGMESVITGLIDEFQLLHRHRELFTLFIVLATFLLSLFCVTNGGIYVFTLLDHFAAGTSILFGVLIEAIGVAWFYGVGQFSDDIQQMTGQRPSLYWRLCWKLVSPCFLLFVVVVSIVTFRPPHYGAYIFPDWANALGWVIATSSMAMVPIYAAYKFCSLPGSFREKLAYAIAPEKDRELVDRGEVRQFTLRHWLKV

[7] = target: T1, Sodium-dependent noradrenaline transporter; assay: Compound was evaluated for inhibition of [3H]NE uptake in HEK-hNET cells expressing Human norepinephrine transporter; type: cell-based
[8] = target: T2, Sodium-dependent serotonin transporter; assay: Compound was evaluated for binding affinity using [125I]RTI-55 as a radioligand in HEK-hSERT cells expressing human serotonin transporter; type: cell-based
[9] = target: T3, Sodium-dependent dopamine transporter; assay: Compound was evaluated for binding affinity to dopamine transporter using [125I]RTI-55 as a radioligand in HEK cells expressing human transporters.; type: cell-based, HEK293

Chain of Norepinephrine transporter (Q9WTR4 whole entry): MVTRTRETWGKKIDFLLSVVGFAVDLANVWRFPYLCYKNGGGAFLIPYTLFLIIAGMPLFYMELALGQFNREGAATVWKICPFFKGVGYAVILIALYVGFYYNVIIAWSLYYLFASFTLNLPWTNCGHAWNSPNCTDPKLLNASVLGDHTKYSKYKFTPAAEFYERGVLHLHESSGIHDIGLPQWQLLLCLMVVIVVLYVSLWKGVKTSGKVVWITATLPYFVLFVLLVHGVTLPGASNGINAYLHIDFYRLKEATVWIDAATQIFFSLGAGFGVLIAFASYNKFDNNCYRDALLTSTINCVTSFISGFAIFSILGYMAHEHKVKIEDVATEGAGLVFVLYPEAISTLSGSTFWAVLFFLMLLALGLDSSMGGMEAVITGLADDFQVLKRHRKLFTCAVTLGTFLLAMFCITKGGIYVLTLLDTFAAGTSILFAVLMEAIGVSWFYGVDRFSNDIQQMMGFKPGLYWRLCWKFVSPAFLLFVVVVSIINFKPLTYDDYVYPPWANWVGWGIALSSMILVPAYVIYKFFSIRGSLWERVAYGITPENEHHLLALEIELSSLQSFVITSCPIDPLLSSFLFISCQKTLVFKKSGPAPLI

Row | Compound | Ki [1] | Ki [2] | Ki [3] | Ki [4] | Ki [5] | Ki [6] | Ki [7] | Ki [8] | Ki [9]
1 | COC(=O)[C@H]1C2CC[C@@H]3C[C@@H]1/C(=C/c1cccc4ccccc14)CN23 | 5370 nM | 9720 nM | 121 nM |  |  |  |  |  | 
2 | COC(=O)[C@H]1C2CC[C@@H]3C[C@@H]1/C(=C/c1ccc(OC)cc1)CN23 | 187 nM | 3130 nM | 56 nM | 5440 nM | 53 nM | 3700 nM | 208 nM | 42 nM | 3600 nM
3 | OC[C@H]1C2CC[C@@H]3C[C@@H]1/C(=C/c1ccccc1)CN23 | 2830 nM | 9690 nM | 5300 nM |  |  |  |  |  | 
4 | COC(=O)[C@H]1C2CC[C@@H]3C[C@@H]1/C(=C/c1ccoc1)CN23 | 164 nM | 1880 nM | 498 nM |  |  |  |  |  | 
5 | COC(=O)[C@H]1C2CC[C@@H]3C[C@@H]1/C(=C/c1ccccc1)CN23 | 53 nM | 481 nM | 1140 nM | 1040 nM | 2400 nM | 910 nM | 68 nM | 2330 nM | 1570 nM
6 | COC(=O)[C@H]1C2CC[C@@H]3C[C@@H]1/C(=C/c1ccc(Cl)c(Cl)c1)CN23 (stereo in doubt; 5b) | 1000 nM | 1920 nM | 20 nM | 3770 nM | 30 nM | > 10000 nM | 640 nM | 0.56 nM | 3320 nM
7 | OC[C@H]1C2CC[C@@H]3C[C@@H]1/C(=C/c1ccc(Cl)c(Cl)c1)CN23 | 10500 nM | 21300 nM | 96 nM |  |  |  |  |  | 
8 | COC(=O)[C@H]1C2CC[C@@H]3C[C@@H]1/C(=C/c1ccc(F)cc1)CN23 | 584 nM | 6620 nM | 335 nM |  |  |  |  |  | 
9 | CC(=O)OC[C@H]1C2CC[C@@H]3C[C@@H]1/C(=C/c1ccccc1)CN23 | 450 nM | 1030 nM | 1050 nM |  |  |  |  |  | 
10 | COC(=O)[C@H]1C2CC[C@@H]3C[C@@H]1/C(=C/c1cccs1)CN23 | 26 nM | 268 nM | 2050 nM |  |  |  |  |  | 
11 | COC(=O)[C@H]1C2CC[C@@H]3C[C@@H]1/C(=C/c1ccc(-c4ccccc4)cc1)CN23 | 12 nM | 477 nM | 614 nM |  |  |  |  |  | 
12 | COC(=O)[C@H]1C2CC[C@@H]3C[C@@H]1/C(=C/c1ccco1)CN23 | 111 nM | 2020 nM | 3680 nM |  |  |  |  |  | 
13 | COC(=O)[C@H]1C2CC[C@@H]3C[C@@H]1/C(=C\c1ccccc1)CN23 | 1530 nM | 5070 nM | 7480 nM |  |  |  |  |  | 
